Earlier results on one compound are cited in patent US20210000980A1, “METHOD AND COMPOSITION FOR THE DETECTION OF ARTHROPODS” (ARKE' S.r.l., priority 2018, published 2021).

This data set has as its system lice. The note with it: 10% formic acid solution in water.

For the compound `O=CO` [formic acid], the lice removed was at most 94%.
